Measured values: patent US6462064B1, “Apoptosis inducing adamantyl derivatives and their usage as anti-cancer agents, especially for cervical cancers and dysplasias” (Galderma Research & Development S.N.C., priority 1996, dated 2002)
“Also recorded” adds a separate entry of the source.

Tested on: cancer cells
Assay: List of active compounds: types of cancers and precancers active against
Type: cell-based
Source text: As discussed, the adamantyl retinoid derivatives according to the invention which induce apoptosis are useful for treating many different types of cancers.

Row | Structure (SMILES) | Types of Cancers and Precancers Active Against
1 | CC(=O)OCc1ccc(-c2ccc3cc(C(=O)O)ccc3c2)cc1C12CC3CC(CC(C3)C1)C2 [Compound 5, 6-[3-(1-adamantyl)-4-acetoxymethylphenyl]-2-naphthoic acid] | head and neck, leukemia, lung,; also recorded: lymphoma, myeloma, pancre-; also recorded: atic, skin
2 | COc1ccc(-c2ccc3cc(C(=O)N4CCNCC4)ccc3c2)cc1C12CC3CC(CC(C3)C1)C2 [Compound 7, N-{6-[3-(1-adamantyl)-4-methoxyphenyl]-2-naphthalenecarboxoyl}piperizide] | brain, breast, head and neck,; also recorded: myeloma, prostate, skin
3 | COc1ccc(C(=O)C#Cc2ccc(C(=O)O)cc2)cc1C12CC3CC(CC(C3)C1)C2 [Compound 8, 4-{3-oxo-3-[3-(1-adamantyl)-4-methoxyphenyl]-1-propynyl}benzoic acid] | brain, breast, leukemia, lung,; also recorded: lymphoma, skin, liver
4 | COc1cc(NC(=O)c2ccc(OC)c(C34CC5CC(CC(C5)C3)C4)c2)ccc1C(=O)O [Compound 9, 4-[N-(3-(1-adamantyl)-4-methoxybenzoyl)amido]2-methoxybenzoic acid] | head and neck, kidney, ovarian, and skin
5 | COc1ccc(-c2nc3ccc(C)cc3[nH]2)cc1C12CC3CC(CC(C3)C1)C2 [Compound 10, 2-[3-(1-adamantyl)-4-methoxyphenyl]-5-methylbenzimidazole] | leukemia, lymphoma, myeloma
6 | O=C(O)c1ccc2cc(-c3ccc(C(O)CO)c(C45CC6CC(CC(C6)C4)C5)c3)ccc2c1 (stereo not drawn) [Compound 11, 6-[3-(1-adamantyl)-4-(1,2-dihydroxyethyl)phenyl]-2-naphthoic acid] | brain, breast, leukemia,; also recorded: pancreatic, skin
7 | Cc1cc(O)c(C23CC4CC(CC(C4)C2)C3)cc1-c1ccc2cc(C(=O)O)ccc2c1 [Compound 12, 6-[3-(1-adamantyl)-4-hydroxy-6-methylphenyl]-2-naphthoic acid] | head and neck, leukemia,; also recorded: pancreatic
8 | COc1cc(C)c(-c2ccc3cc(C(=O)O)ccc3c2)cc1C12CC3CC(CC(C3)C1)C2 [Compound 13, 6-[3-(1-adamantyl)-4-methoxy-6-methylphenyl]-2-naphthoic acid] | brain, head and neck, leukemia,; also recorded: pancreatic
9 | OCc1ccc2cc(-c3ccc(O)c(C45CC6CC(CC(C6)C4)C5)c3)ccc2c1 [Compound 14, 6-[3-(1-adamantyl)-4-hydroxyphenyl]-2-hydroxymethylnaphthalene] | bladder, kidney, skin
10 | COc1ccc(COc2ccc(C(=O)O)cc2)cc1C12CC3CC(CC(C3)C1)C2 [Compound 15, 4-[3-(1-adamantyl)-4-methoxybenzyloxy]benzoic acid] | breast, leukemia, prostate
11 | COc1ccc(-c2cc3cc(C(=O)O)ccc3o2)cc1C12CC3CC(CC(C3)C1)C2 [Compound 16, 2-[3-(1-adamantyl)-4-methoxyphenyl]-5-benzofurancarboxylic acid] | brain, breast, prostate
12 | COC(=O)c1ccc2cc(-c3ccc(O)c(C45CC6CC(CC(C6)C4)C5)c3)ccc2c1 [Compound 17, 6-[3-(1-adamantyl)-4-hydroxyphenyl]-2-naphthoic acid methyl ester] | leukemia
13 | COC(=O)c1cc(O)c2cc(-c3ccc(OC)c(C45CC6CC(CC(C6)C4)C5)c3)ccc2c1C [Compound 18, 1-methyl-4-hydroxy-6-[3-(1-adamantyl)-4-methoxyphenyl]-2-naphthoic acid methyl ester] | lymphoma, liver
14 | COc1ccc(C(=O)Nc2ccc(C(=O)N3CCOCC3)cc2)cc1C12CC3CC(CC(C3)C1)C2 [Compound 19, N-{4-[N-(3-(1-adamantyl)-4-methoxybenzoyl)amido]benzoyl}morpholide] | kidney, myeloma, prostate, skin
15 | COc1ccc(C(=O)Oc2ccc(C(=O)O)c(F)c2)cc1C12CC3CC(CC(C3)C1)C2 [Compound 20, 4-[3-(1-adamantyl)-4-methoxybenzoyloxy]-2-fluorobenzoic acid] | lymphoma, skin
16 | COc1ccc(C(=O)Oc2ccc(C(=O)O)cc2F)cc1C12CC3CC(CC(C3)C1)C2 [Compound 21, 4-hydroxycarbonyl-2-fluorophenyl ester of 3-(1-adamantyl)-4-methoxybenzoic acid] | leukemia
17 | CCc1ccc(-c2ccc3cc(C(=O)O)ccc3c2)cc1C12CC3CC(CC(C3)C1)C2 [Compound 22, 6-[3-(1-adamantyl)-4-ethylphenyl]-2-naphthoic acid] | breast, leukemia, myeloma
18 | O=C(O)c1ccc2cc(-c3ccc(OCCCO)c(C45CC6CC(CC(C6)C4)C5)c3)ccc2c1 [Compound 23, 6-[3-(1-adamantyl)-4-(3-hydroxypropoxy)phenyl]-2-naphthoic acid] | breast, leukemia, lymphoma

Row | Structure (SMILES) | Types of Cancers and Precancers Active Against
19 | NC(=O)c1ccc(-c2ccc3cc(C(=O)O)ccc3c2)cc1C12CC3CC(CC(C3)C1)C2 [Compound 24, 6-[3-(1-adamantyl)-4-aminocarbonylphenyl]-2-naphthoic acid] | leukemia, lymphoma
20 | O=C(CC(=O)C12CC3CC(CC(C3)C1)C2)Nc1ccc(C(=O)O)cc1 [Compound 25, N-(4-carboxyphenyl)-3-(1-adamantyl)-3-oxopropionamide] | lymphoma
21 | COc1ccc(C(O)COc2ccc(C(=O)O)c(O)c2)cc1C12CC3CC(CC(C3)C1)C2 (stereo not drawn) [Compound 26, 2-hydroxy-4-{2-[3-(1-adamantyl)-4-methoxyphenyl]-2-hydroxyethoxy}benzoic acid] | lymphoma
22 | O=C(O)c1ccc2cc(-c3ccc(OC[C@@H](O)CO)c(C45CC6CC(CC(C6)C4)C5)c3)ccc2c1 [Compound 27, (S)-6-[3-(1-adamantyl)-4-(2S,3-dihydroxypropoxy)phenyl]-2-naphthoic acid] | leukemia
23 | COc1cc(C(=O)/C=C/c2ccc(C(=O)O)cc2)ccc1C12CC3CC(CC(C3)C1)C2 [Compound 28, (E) 4-{3-oxo-3-[3-methoxy-4-(1-adamantyl)phenyl]prop-1-enyl}benzoic acid] | leukemia
24 | COCCOCOc1ccc(C(=O)/C=C/c2ccc(C(=O)O)cc2)cc1C12CC3CC(CC(C3)C1)C2 [Compound 29, (E) 4-{3-oxo-3-[4-(2-methoxyethoxymethoxy)-3-(1-adamantyl)phenyl]prop-1-enyl}benzoic acid] | brain, leukemia, lung,; also recorded: lymphoma, prostate
25 | NC(=O)CCCCCOc1ccc(/C=C/c2ccc(C(=O)O)cc2)cc1C12CC3CC(CC(C3)C1)C2 [Compound 30, (E) 4-{2-[4-(6-aminocarbonylpentyloxy)-3-(1-adamantyl)phenyl]ethenyl}benzoic acid] | lymphoma, myeloma
26 | COc1ccc(C(=N)Nc2ccc(C(=O)O)cc2)cc1C12CC3CC(CC(C3)C1)C2 [Compound 31, 3-(1-adamantyl)-4-methoxy-N-(4-carboxyphenyl)benzamidine] | leukemia
27 | CCC1OC(=O)C(C)C(OC2CC(C)(OC)C(OC(=O)c3ccc4cc(-c5ccc(OC)c(C67CC8CC(CC(C8)C6)C7)c5)ccc4c3)C(C)O2)C(C)C(OC2OC(C)CC(N(C)C)C2O)C(C)(O)CC(C)C(=O)C(C)C(O)C1(C)O (stereo not drawn) [Compound 32, 4″-Erythromycin A ester of 6-[3-(1-adamantyl)-4-methoxyphenyl]2-naphthoic acid] | leukemia, lymphoma
28 | O=C(O)c1ccc(OC(=O)c2ccc(OCC(O)CO)c(C34CC5CC(CC(C5)C3)C4)c2)cc1 (stereo not drawn) [Compound 33, 4-carboxyphenyl ester of 3-(1-adamantyl)-4-(2,3-dihydroxyproproxy)benzoic acid] | leukemia, skin
29 | O=C(O)c1ccc2cc(-c3ccc(OCC(O)CO)c(C45CC6CC(CC(C6)C4)C5)c3)ccc2c1 (stereo not drawn) [Compound 34, 6-[3-(1-adamantyl)-4-(2,3-dihydroxypropoxy)phenyl]-2-naphthoic acid] | leukemia, skin
30 | COC(=O)c1ccc(C(=O)Nc2ccc(C(=O)O)cc2)cc1C12CC3CC(CC(C3)C1)C2 [Compound 35, N-4-carboxyphenyl 3-(1-adamantyl)-4-(methoxycarbonyl)benzamide] | leukemia, lymphoma, myeloma
31 | O=C(O)c1ccc2cc(-c3cc(O)c(O)c(C45CC6CC(CC(C6)C4)C5)c3)ccc2c1 [Compound 36, 6-[3-(1-adamantyl)-4,5-dihydroxyphenyl]-2-naphthoic acid] | brain, head and neck, leukemia,; also recorded: lymphoma, myeloma, pancreatic
32 | CC12CC3CC(C1)CC(c1cc(-c4ccc5cc(C(=O)O)ccc5c4)cc4c1OCO4)(C3)C2 [Compound 37, 6-[3-(3-methyl-1-adamantyl)-4,5-methylenedioxyphenyl]-2-naphthoic acid] | kidney, leukemia, lung,; also recorded: lymphoma, skin
33 | O=C(O)c1ccc2cc(-c3cc4c(c(C56CC7CC(CC(C7)O5)C6)c3)OCO4)ccc2c1 [Compound 38, 6-[3-(2-oxa-1-adamantyl)-4,5-methylenedioxyphenyl]-2-naphthoic acid] | leukemia, skin
34 | COc1ccc(-c2ccc3cc(C(=O)O)ccc3c2)cc1C12CC3CC(CC(C3)O1)C2 [Compound 39, 6-[3-(2-oxa-1-adamantyl)-4-methoxyphenyl]-2-naphthoic acid] | kidney, lymphoma, skin, liver
35 | COc1ccc(-c2ccc3cc(C(=O)O)ccc3c2)cc1C12CC3CC(CC(C)(C3)O1)C2 [Compound 40, 6-[3-(2-oxa-3-methyl-1-adamantyl)-4-methoxyphenyl]-2-naphthoic acid] | bladder, breast, kidney,; also recorded: leukemia, lung, lymphoma,; also recorded: ovarian, prostate, skin
36 | COc1ccc(-c2ccc3cc(C(=O)O)ccc3c2)cc1C12CC3CC(CC(C)(C3)C1)C2 [Compound 41, 6-[3-(3-methyl-1-adamantyl)-4-methoxyphenyl]-2-naphthoic acid] | skin
